From patent publication US9249145B2, “Heterocyclic derivatives of pyrazol-4-yl-pyrrolo[2,3-d]pyrimidines as janus kinase inhibitors” (Incyte Holdings Corporation, priority 2009, dated 2016)
Where a name gives a salt, the structure may show the parent alone. Read-outs that look alike come from different tables or passages of the source.

Assays:
[1] = target: T1, human JAK1 (a.a. 837-1142) (Homo sapiens, UniProt P23458); assay: In vitro JAK kinase assay (HTRF, phosphorylation of biotinylated peptide), JAK1; format: biochemical; settings: 1 mM ATP, read-out: JAK1 IC50 (nM) @ 1 mM ATP
T1 construct: The catalytic domains of human JAK1 (a.a. 837-1142); His tag (N); made in house; host or cells: insect cells (baculovirus)
T1 sequence (P23458 849-1154): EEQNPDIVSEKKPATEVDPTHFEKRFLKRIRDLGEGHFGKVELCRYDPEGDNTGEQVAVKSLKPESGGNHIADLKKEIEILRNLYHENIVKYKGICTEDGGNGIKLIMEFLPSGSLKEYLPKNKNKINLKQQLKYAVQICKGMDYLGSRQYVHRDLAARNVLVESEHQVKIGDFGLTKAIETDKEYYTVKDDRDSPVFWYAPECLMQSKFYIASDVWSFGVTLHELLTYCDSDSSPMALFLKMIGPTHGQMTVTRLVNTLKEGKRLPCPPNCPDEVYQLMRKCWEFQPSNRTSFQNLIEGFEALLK
Protocol: (§1) Compounds herein were tested for inhibitory activity of JAK targets according to the following in vitro assay described in Park et al., Analytical Biochemistry 1999, 269, 94-104. The catalytic domains of human JAK1 (a.a. 837-1142), Jak2 (a.a. 828-1132) and Jak3 (a.a. 781-1124) with an N-terminal His tag were expressed using baculovirus in insect cells and purified. The catalytic activity of JAK1, JAK2 or JAK3 was assayed by measuring the phosphorylation of a biotinylated peptide. The phosphorylated peptide was detected by homogenous time resolved fluorescence (HTRF). IC50s of compounds were measured for each kinase in the 40 microL reactions that contain the enzyme, ATP and 500 nM peptide in 50 mM Tris (pH 7.8) buffer with 100 mM NaCl, 5 mM DTT, and 0.1 mg/mL (0.01%) BSA. The ATP concentration in the reactions was 90 μM for Jak1, 30 μM for Jak2 and 3 μM for Jak3 for Km conditions. For the 1 mM IC50 measurements, ATP concentration in the reactions was 1 mM. Reactions were carried out at room temperature for 1 hr and then stopped with 20 μL 45 mM EDTA, 300 nM SA-APC, 6 nM Eu-Py20 in assay buffer (Perkin Elmer, Boston, Mass.). Binding to the Europium labeled antibody took place for 40 minutes and HTRF signal was measured on a Fusion plate reader (Perkin Elmer, Boston, Mass.). See Tables 1, 2, 3, and 4 for data related to compounds of the invention.

Jak2 (a.a. 828-1132) = target: T2, Jak2 (a.a. 828-1132) (Homo sapiens, UniProt O60674); assay: In vitro JAK kinase assay (HTRF, phosphorylation of biotinylated peptide), JAK2; format: biochemical; settings: 1 mM ATP, read-out: JAK2 IC50 (nM) @ 1 mM ATP
T2 construct: Jak2 (a.a. 828-1132); His tag (N); made in house; host or cells: insect cells (baculovirus)
T2 sequence (O60674 828-1132): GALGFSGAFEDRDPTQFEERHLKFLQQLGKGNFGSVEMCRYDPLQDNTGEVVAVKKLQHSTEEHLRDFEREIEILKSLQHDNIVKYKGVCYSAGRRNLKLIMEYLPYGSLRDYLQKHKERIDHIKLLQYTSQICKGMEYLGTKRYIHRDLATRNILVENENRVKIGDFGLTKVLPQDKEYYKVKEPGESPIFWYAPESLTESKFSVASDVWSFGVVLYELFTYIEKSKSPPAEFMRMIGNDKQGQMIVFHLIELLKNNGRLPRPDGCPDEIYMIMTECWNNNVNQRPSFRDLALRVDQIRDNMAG
Protocol: as §1

With `CCC(CN1CCN(C(=O)c2cc(F)ccc2F)CC1)n1cc(-c2ncnc3[nH]ccc23)cn1` (stereo not drawn) [Example 119, (4-(2-(4-(7H-pyrrolo[2,3-d]pyrimidin-4-yl)-1H-pyrazol-1-yl)butyl)piperazin-1-yl)(2,5-difluorophenyl)methanone] the IC50 ([1]; Examples 92-162) was 20 to 50 nM and the IC50 (Jak2 (a.a. 828-1132); Examples 92-162) was 50 to 100 nM.
In the case of `N#CCC(CN1CCCN(C(=O)c2ccc(F)cc2)CC1)n1cc(-c2ncnc3[nH]ccc23)cn1` (stereo not drawn) [Example 98, 4-[4-(4-fluorobenzoyl)-1,4-diazepan-1-yl]-3-[4-(7H-pyrrolo[2,3-d]pyrimidin-4-yl)-1H-pyrazol-1-yl]butanenitrile], the IC50 ([1]; Examples 92-162) is reported as 20 to 50 nM and the IC50 (Jak2 (a.a. 828-1132); Examples 92-162) is reported as > 100 nM.
With `N#CCC(CN1CCN(C(=O)c2ccc(F)c(F)c2F)CC1)n1cc(-c2ncnc3[nH]ccc23)cn1` (stereo not drawn) [Example 48, 3-(4-(7H-pyrrolo[2,3-d]pyrimidin-4-yl)-1H-pyrazol-1-yl)-4-(4-(2,3,4-trifluorobenzoyl)piperazin-1-yl)butanenitrile phosphate salt] the IC50 ([1]; Examples 12-91) was < 10 nM and the IC50 (Jak2 (a.a. 828-1132); Examples 12-91) was 10 to 50 nM.
For `CCC(CN1CCN(C(=O)c2ccc(F)cc2F)CC1)n1cc(-c2ncnc3[nH]ccc23)cn1` (stereo not drawn) [Example 118, (4-(2-(4-(7H-pyrrolo[2,3-d]pyrimidin-4-yl)-1H-pyrazol-1-yl)butyl)piperazin-1-yl)(2,4-difluorophenyl)methanone], the IC50 ([1]; Examples 92-162) was < 20 nM and the IC50 (Jak2 (a.a. 828-1132); Examples 92-162) was 20 to 50 nM.
Work on `N#CCC(CN1CCN(C(=O)c2ccc(F)cn2)CC1)n1cc(-c2ncnc3[nH]ccc23)cn1` (stereo not drawn) [Example 21, 4-{4-[(5-fluoropyridin-2-yl)carbonyl]piperazin-1-yl}-3-[4-(7H-pyrrolo[2,3-d]pyrimidin-4-yl)-1H-pyrazol-1-yl]butanenitrile trifluoroacetate Salt] yielded an IC50 ([1]; Examples 12-91) of 10 to 50 nM and an IC50 (Jak2 (a.a. 828-1132); Examples 12-91) of 50 to 100 nM.
For `N#CCC(CN1CCCN(C(=O)c2ccc(Cl)cc2Cl)CC1)n1cc(-c2ncnc3[nH]ccc23)cn1` (stereo not drawn) [Example 103, 4-[4-(2,4-dichlorobenzoyl)-1,4-diazepan-1-yl]-3-[4-(7H-pyrrolo[2,3-d]pyrimidin-4-yl)-1H-pyrazol-1-yl]butanenitrile], the IC50 ([1]; Examples 92-162) was 20 to 50 nM and the IC50 (Jak2 (a.a. 828-1132); Examples 92-162) was > 100 nM.
`N#CCC(CN1CCN(C(=O)c2ccc(O)c(Cl)c2)CC1)n1cc(-c2ncnc3[nH]ccc23)cn1` (stereo not drawn) [Example 54, 3-(4-(7H-pyrrolo[2,3-d]pyrimidin-4-yl)-1H-pyrazol-1-yl)-4-(4-(3-chloro-4-hydroxybenzoyl)piperazin-1-yl)butanenitrile trifluoroacetate salt] was tested, and the IC50 ([1]; Examples 12-91) was 10 to 50 nM and the IC50 (Jak2 (a.a. 828-1132); Examples 12-91) was 50 to 100 nM.
In the case of `Cc1c(Nc2ccc(F)cc2F)ncnc1N1CCC(C(CC#N)n2cc(-c3ncnc4[nH]ccc34)cn2)CC1` (stereo not drawn) [Example 155, 3-(4-(7H-pyrrolo[2,3-d]pyrimidin-4-yl)-1H-pyrazol-1-yl)-3-(1-(6-(2,4-difluorophenylamino)-5-methylpyrimidin-4-yl)piperidin-4-yl)propanenitrile], the IC50 ([1]; Examples 92-162) is reported as < 20 nM and the IC50 (Jak2 (a.a. 828-1132); Examples 92-162) is reported as > 100 nM.
With `N#CCC(CN1CCN(C(=O)c2ccc(C#N)cc2F)CC1CO)n1cc(-c2ncnc3[nH]ccc23)cn1` (single isomer, unassigned) [156—peak 3, 4-{[4-{3-cyano-2-[4-(7H-pyrrolo[2,3-d]pyrimidin-4-yl)-1H-pyrazol-1-yl]propyl}-3-(hydroxymethyl)piperazin-1-yl]carbonyl}-3-fluorobenzonitrile trifluoroacetate Salt] the IC50 ([1]; Examples 92-162) was 50 to 100 nM and the IC50 (Jak2 (a.a. 828-1132); Examples 92-162) was > 100 nM.
`Cc1cc(Cl)ccc1C(=O)N1CCCN(CC(CC#N)n2cc(-c3ncnc4[nH]ccc34)cn2)CC1` (stereo not drawn) [Example 105, 4-[4-(4-chloro-2-methylbenzoyl)-1,4-diazepan-1-yl]-3-[4-(7H-pyrrolo[2,3-d]pyrimidin-4-yl)-1H-pyrazol-1-yl]butanenitrile] was tested, and the IC50 ([1]; Examples 92-162) was 20 to 50 nM and the IC50 (Jak2 (a.a. 828-1132); Examples 92-162) was > 100 nM.
With `Cc1cc(S(=O)(=O)N2CCN(CC(C)n3cc(-c4ncnc5[nH]ccc45)cn3)CC2)c(C(F)(F)F)o1` (stereo not drawn) [Example 92, 4-{1-[1-methyl-2-(4-{[5-methyl-2-(trifluoromethyl)-3-furyl]sulfonyl}piperazin-1-yl)ethyl]-1H-pyrazol-4-yl}-7H-pyrrolo[2,3-d]pyrimidine] the IC50 ([1]; Examples 92-162) was 20 to 50 nM and the IC50 (Jak2 (a.a. 828-1132); Examples 92-162) was > 100 nM.
`N#CCC(CN1CCN(S(=O)(=O)c2cccs2)CC1)n1cc(-c2ncnc3[nH]ccc23)cn1` (stereo not drawn) [Example 67, 3-(4-(7H-pyrrolo[2,3-d]pyrimidin-4-yl)-1H-pyrazol-1-yl)-4-(4-(thiophen-2-ylsulfonyl)piperazin-1-yl)butanenitrile] was tested, and the IC50 ([1]; Examples 12-91) was < 10 nM and the IC50 (Jak2 (a.a. 828-1132); Examples 12-91) was < 10 nM.
`CCC(CN1CCN(C(=O)c2ccc(Cl)cc2F)CC1)n1cc(-c2ncnc3[nH]ccc23)cn1` (stereo not drawn) [Example 124, (4-(2-(4-(7H-pyrrolo[2,3-d]pyrimidin-4-yl)-1H-pyrazol-1-yl)butyl)piperazin-1-yl)(4-chloro-2-fluorophenyl)methanone] was tested, and the IC50 ([1]; Examples 92-162) was < 20 nM and the IC50 (Jak2 (a.a. 828-1132); Examples 92-162) was 20 to 50 nM.
With `CCC(CN1CCN(S(=O)(=O)c2cccc(F)c2)CC1)n1cc(-c2ncnc3[nH]ccc23)cn1` (stereo not drawn) [Example 136, 4-(1-(1-(4-(3-fluorophenylsulfonyl)piperazin-1-yl)butan-2-yl)-1H-pyrazol-4-yl)-7H-pyrrolo[2,3-d]pyrimidine] the IC50 ([1]; Examples 92-162) was < 20 nM and the IC50 (Jak2 (a.a. 828-1132); Examples 92-162) was 20 to 50 nM.
`COc1cc(C(=O)N2CCN(CC(CC#N)n3cc(-c4ncnc5[nH]ccc45)cn3)CC2)ccc1F` (stereo not drawn) [Example 43, 3-(4-(7H-pyrrolo[2,3-d]pyrimidin-4-yl)-1H-pyrazol-1-yl)-4-(4-(4-fluoro-3-methoxybenzoyl)piperazin-1-yl)butanenitrile] was tested, and the IC50 ([1]; Examples 12-91) was < 10 nM and the IC50 (Jak2 (a.a. 828-1132); Examples 12-91) was 10 to 50 nM.
With `N#CCC(CN1CCN(C(=O)c2ncc(C(F)(F)F)cc2F)CC1)n1ccc(-c2ncnc3[nH]ccc23)c1` (stereo not drawn) [Example 89, 3-(3-(7H-pyrrolo[2,3-d]pyrimidin-4-yl)-1H-pyrrol-1-yl)-4-(4-(3-fluoro-5-(trifluoromethyl)picolinoyl)piperazin-1-yl)butanenitrile] the IC50 ([1]; Examples 12-91) was 10 to 50 nM and the IC50 (Jak2 (a.a. 828-1132); Examples 12-91) was > 100 nM.
In the case of `CCC(CN1CCN(S(=O)(=O)c2cn(C)c(C)n2)CC1)n1cc(-c2ncnc3[nH]ccc23)cn1` (stereo not drawn) [Example 144, 4-(1-(1-(4-(1,2-dimethyl-1H-imidazol-4-ylsulfonyl)piperazin-1-yl)butan-2-yl)-1H-pyrazol-4-yl)-7H-pyrrolo[2,3-d]pyrimidine], the IC50 ([1]; Examples 92-162) is reported as 20 to 50 nM and the IC50 (Jak2 (a.a. 828-1132); Examples 92-162) is reported as 50 to 100 nM.
In the case of `CCC(CN1CCN(S(=O)(=O)c2ccccc2C#N)CC1)n1cc(-c2ncnc3[nH]ccc23)cn1` (stereo not drawn) [Example 128, 2-(4-(2-(4-(7H-pyrrolo[2,3-d]pyrimidin-4-yl)-1H-pyrazol-1-yl)butyl)piperazin-1-ylsulfonyl)benzonitrile], the IC50 ([1]; Examples 92-162) is reported as < 20 nM and the IC50 (Jak2 (a.a. 828-1132); Examples 92-162) is reported as 50 to 100 nM.
For `Cc1cccc(S(=O)(=O)N2CCN(CC(CC#N)n3cc(-c4ncnc5[nH]ccc45)cn3)CC2)n1` (stereo not drawn) [Example 64, 3-(4-(7H-pyrrolo[2,3-d]pyrimidin-4-yl)-1H-pyrazol-1-yl)-4-(4-(6-methylpyridin-2-ylsulfonyl)piperazin-1-yl)butanenitrile], the IC50 ([1]; Examples 12-91) was < 10 nM and the IC50 (Jak2 (a.a. 828-1132); Examples 12-91) was < 10 nM.
With `N#CCC(CN1CCN(C(=O)c2ccc(C(F)F)cc2F)CC1)n1ccc(-c2ncnc3[nH]ccc23)c1` (stereo not drawn) [Example 91, 3-(3-(7H-pyrrolo[2,3-d]pyrimidin-4-yl)-1H-pyrrol-1-yl)-4-(4-(4-(difluoromethyl)-2-fluorobenzoyl)piperazin-1-yl)butanenitrile] the IC50 ([1]; Examples 12-91) was < 10 nM and the IC50 (Jak2 (a.a. 828-1132); Examples 12-91) was 10 to 50 nM.
With `Cc1ccc(C(=O)N2CCN(CC(CC#N)n3cc(-c4ncnc5[nH]ccc45)cn3)CC2)c(F)c1` (stereo not drawn) [Example 28, 3-(4-(7H-pyrrolo[2,3-d]pyrimidin-4-yl)-1H-pyrazol-1-yl)-4-(4-(2-fluoro-4-methylbenzoyl)piperazin-1-yl)butanenitrile] the IC50 ([1]; Examples 12-91) was < 10 nM and the IC50 (Jak2 (a.a. 828-1132); Examples 12-91) was < 10 nM.
